Consider one compound from patent US20030157208A1, “Cynomoriaceae extract and use in treating erectile dysfunction” (priority 2001, published 2003).

SMILES strings stand for the structures. In brackets after ≈: the same amount, converted by molar mass.

For the assay, the system named is rat corpus cavernosum tissue. The experiment in a line: Relaxation of norepinephrine-precontracted isolated rat corpus cavernosum strips (organ bath). It is filed as cell-based, Sprague-Dawley (SD) rats. How it is done:
The extracts of this invention may be tested for their activity for alleviating or preventing symptoms erectile dysfunction by techniques known in the art. The test is similar to the endothelium-dependent vasorelaxatin test reported by Fitzpatrick et al., 1995. In general, in accordance with this protocol, plant extracts are tested for endothelium-dependent relaxation (EDR) by measuring the relaxation or contraction imparted by diluted samples to an appropriate tissue sample precontacted by norepinephrine to arrive at an EDR value that is the percentage of relaxation imparted. […] Experiments were performed on male, eight to twelve week old, 278.86±6.85 g Sprague-Dawley (SD) rats. Rats were housed in an animal care facility at the College of Medicine, University of Saskatchewan. Rats were anaesthetized with sodium pentobarbital (50 mg/kg) by intraperitoneal injection. The whole penis of one rat (shown at 10 in FIG. 3A) was gently dissected out and put into a Petri dish containing ice-cold Krebs' solution. The portion of the penis used for the experiments is shown generally at 12 in FIG. 3A. The penis was cleaned and the connective tissues were removed. The section 12 was prepared for testing as a proximal section (10 mm in length) of the corpus cavernosum 18, which was cut longitudinally into two pieces and the size of each piece was about 1×1×10 mm. […] The pH of this bath solution 23 was adjusted to 7.2. The corpus cavemosum strips 19 were tied with silk threads 24 at each end with one end immobilized at 26 on the inner wall of the organ bath chamber 20, and the other hooked to a transducer 28 (FT 03, Grass Ins. Co., Quincy). […] Strips 19 were contracted with 10 μM norepinephrine. After the plateau phase of contraction had been reached, the cumulative concentration-response relationships of BuSY and BuSY608 were tested. […] As a control and comparison compound, sildenafil ([…]®) was also used to test the penile tissue response (tissues prepared as above). […]

What is called EC50 is the concentration needed to bring the measured effect to its halfway point. Regarding `CCCc1nn(C)c2c(=O)[nH]c(-c3cc(S(=O)(=O)N4CCN(C)CC4)ccc3OCC)nc12` [sildenafil], a half-maximal response (Rattus norvegicus, strips precontracted with 10 μM norepinephrine, cumulative concentration-response, n=6) (EC50) required 11.4 µg/mL (≈ 24 µM). The compound further came in with a maximal relaxation (induced by 200 μg/ml, norepinephrine-precontracted strips, n=6) of 66.7±6.1%. The “concentration at which relaxation was initiated” value (norepinephrine-precontracted strips, cumulative concentration ladder) worked out at 0.6 µg/mL.
